Results reported in patent US4362727A, “5-Substituted 9-cyanomethylene-dithieno[3,4-b:4,3-e]-azepines and therapeutic agents which contain these compounds” (priority 1981, dated 1982).

Key:
[1] = system: tonic extension reflex in the gastrocnemius; experiment: Muscle-relaxing action (tonic extension reflex); type: in vivo, rabbits; settings: rabbit, intravenous; for Muscle relaxation R.E.: clozapine = 1.0
Protocol: 2. […] The rabbit is kept in a special apparatus which allows it to flex its paw at the talocalcanean joint in a defined and reproducible manner. The flexing triggers off a tonic extension reflex in the calf muscles. The electrical activity of the muscle during the contraction is recorded, and the individual pulses are counted. The extension (lasting 5 seconds) is repeated at intervals of one minute. […] The numbers of pulses following the administration are compared with the initial values.

[2] = system: orientation hypermotility; experiment: Sedative action (orientation hypermotility); type: in vivo, female NMRI mice; settings: mice, oral; clozapine = 1.0
Protocol: 4-8 groups each of 3 female NMRI mice are given the compound orally. The orientation hypermotility induced by a new environment is determined photoelectrically, for a period of 30 minutes, starting 30 minutes after administration of the substances.

[3] = system: methamphetamine-induced sniffing movements; experiment: Antimethamphetamine action (methamphetamine antagonism); type: in vivo; settings: rats, intraperitoneal; clozapine = 1.0
Protocol: 3. Antimethamphetamine action
Methamphetamine.HCl (2.5 mg/kg administered intravenously) regularly causes the following symptoms in rats: motor restlessness, searching and sniffing movements, fur standing on end, and tremor (Janssen et al., Arzneim.-Forsch./Drug Res. 13 (1963), 205; and Randrup et al., Psychopharmacologia 11 (1967), 300). The test substances are administered intraperitoneally 30 minutes before methamphetamine. The substance is considered to have an effect if no sniffing movements are observed for a period of 5 minutes after the injection of methamphetamine. The mean inhibition dose (ED50%) is determined, by means of probit analysis, as the dose which prevents the occurrence of the symptom in half the animals.

[4] = system: pilocarpine-induced scratching movements; experiment: Anticholinergic action on the central nervous system (pilocarpine); type: in vivo; settings: rats, intraperitoneal; clozapine = 1.0
Protocol: 4. Anticholinergic action on the central nervous system
To test the anticholinergic action on the central nervous system, cholinergic stimulation is triggered off by pilocarpine. After rapid intravenous injection of pilocarpine.HCl (50 mg/kg) rats display alternating scratching movements of their rear paws; further symptoms triggered off in the central nervous system are jaw movements and tremors. […] The test substances are administered intraperitoneally 30 minutes before pilocarpine. The substance is considered to have an effect if no scratching is observed for a period of 2 minutes after the injection of pilocarpine. For this symptom, the mean inhibition dose (ED50%) is determined, by means of probit analysis by the method of Finney, as the dose of the test substance which suppresses the scratching in half the animals.

| SMILES | Muscle relaxation R.E. [1] | Sedation R.E. [2] | Methamphetamine antagonism R.E. [3] | ED50 ([1]; Oryctolagus cuniculus, pulses compared with initial values, read-out: Muscle relaxation ED 50%) [mg/kg] | Anticholinergic action on the central nervous system R.E. [4] |
| --- | --- | --- | --- | --- | --- |
| CN1CCN(C2=Nc3c(csc3Cl)C(=CC#N)c3cscc32)CC1 (mixture of isomers) [Example 2, Cis/trans-3-chloro-9-cyanomethylene-5-(4-methylpiperazin-1-yl)-dithieno[3,4-b:4',3'-e]azepine] | 0.56 | 0.49 | – | – | – |
| CCN1CCN(C2=Nc3cscc3C(=CC#N)c3cscc32)CC1 (mixture of isomers) [Example 6, Cis/trans-9-cyanomethylene-5-(4-ethyl-piperazin-1-yl)dithieno[3,4-b:4',3'-e]azepine] | 0.21 | 0.44 | 0.88 | – | – |
| CN1CCN(C2=Nc3cc(Cl)ccc3Nc3ccccc32)CC1 [Clozapine] | 1.0 | 1.0 | 1.0 | 0.046 | 1.0 |
| CN1CCN(C2=Nc3cscc3C(=CC#N)c3cscc32)CC1 [Example 1a, 9-cyanomethylene-5-(4-methyl-piperazin-1-yl)-dithieno[3,4-b:4',3'-e]azepine] | 0.33 | 0.64 | – | – | 1.1 |
| CN1CCN(C2=Nc3ccccc3Cc3ccccc32)CC1 [Perlapine] | 0.42 | – | 1.2 | – | 0.22 |
